Laboratory results: US4333930A, “Orthoarylideneaminophenethylamines and pharmaceutical compositions” (priority 1980, dated 1982)

Columns and labels:
[1] = Oral toxicity (mortality) in the mouse, Table 1; assay type: in vivo; details: mouse, in vivo, po, Swiss mice, 14 days
Protocol: (§1) The mortality percentages caused by the products of the present invention administered orally to Swiss mice are shown in Table 1. The animals, free of specific pathological organism were housed in an air conditioned room from 24 to 48 hours before the start of the experiments. They were divided up into lots of 5 males and 5 females. With the animals unfed for 24 hours, the substances were administered intragastrically in a base of 6% gum arabic in a volume equal to 0.1 ml for 10 g of animal weight. The mortality was recorded at 14 days.
(§2) % of mortality as a function of the dose

[2] = system: Swiss mice; test: Oral toxicity (mortality) in the mouse, Table 1; assay type: in vivo; details: 14 days, 20160 min
Protocol: as §1, §2

[3] = system: phenylbenzoquinone (PBQ); test: Analgesic activity using phenylbenzoquinone (PBQ) as noxious agent, Table 2; assay type: in vivo, male Swiss mouse
Protocol: The analgesic activity was determined with the male Swiss mouse using phenylbenzoquinone (PBQ) (a variation of the method of Siegmund et al, Proc. Soc. Exp. Med., […], 95, 729-31) as the noxious agent. Twenty-eightminutes after having administered the test products in a suspension in a 6% gum base, the PBQ solution was injected. The mice were then observed ca. 5 mn. for the next five minutes.
% of analgesic activity as a function of
the dose expressed in mg/kg

[4] = system: number of escapes the animal made in 5 minutes; test: Escape test, Table 3; assay type: in vivo, mouse; details: Mus musculus, po, 5 min, read-out: % of activity (variation of the number of escapes)
Text: The products of the invention were always administered orally in 6% gum base.
The notation NS signifies that the difference between the results noted for the product and the results noted for the excipient alone is not significant at the threshold 0.05 according to the Student t Test.

[5] = system: stereotype induced by apomorphine; test: Antagonism of the stereotype induced by apomorphine, Table 4; assay type: in vivo; details: for % of activity vis-a-vis the stereotype induced by apomorphine: oral; for antagonism vis-a-vis the stereotype with apomorphine: in words
Text: (§3) The psychotropic profile of the present invention products has been characterized with the animals in numerous tests some of whose results are shown hereinafter. The products of the invention were always administered orally in 6% gum base.
% of activity vis-a-vis the stereotype
induced by apomorphine as a function of the
administered dose expressed in mg/kg

[6] = system: number of displacements of the animal; test: Four plates test (anxiolytic activity), Table 5; assay type: in vivo; details: oral, mouse
Text: as §3
A certain number of products manifest an anxiolytic activity evidenced in the test with the four plates with the mouse (Table 5).
% of increase in the number of displacements of the
animal as a function of the dose expressed in mg/kg

[7] = system: trembling induced by oxotremorine; test: Antagonism of trembling induced by oxotremorine, Table 7; assay type: in vivo; details: oral, read-out: % of inhibition of trembling induced by oxotremorine
Text: as §3
(§4) Certain tests made it possible to show antidepressive activities. These are tests of antagonism to the effects of reserpine, oxotremorine (according to Everett G. M. et al, Science, 1956, 124, 79 and Levy J. et al, Therapie 1965, 20, 265) and to despair (according to Porsolt P. D. et al, Eur. J. Pharmacol., 1978, 47, 379-91).
% of inhibition of trembling induced by
oxotremorine as a function of the dose
administered expressed in mg/kg

[8] = system: despair; test: Test of despair (Porsolt), Table 8; assay type: in vivo; details: oral
Text: as §3, §4
Test of despair: % of antagonism as a function
of the dose administered orally and expressed

[9] = 100 mg/kg, male Swiss mouse, PBQ

CN(C)CCc1cc2c(cc1N=Cc1cccs1)OCO2 [COR 01 151]
mortality at 336 h ([1]; 750 mg/kg): 60% | % of mortality ([2]; 150 mg/kg): 0% | % of mortality ([2]; 250 mg/kg): 10% | % of mortality ([2]; 500 mg/kg): 40% | % of analgesic activity ([3]; 50 mg/kg, male Swiss mouse, PBQ): 41% | inhibition in vivo at 100 mg/kg ([3]; Mus musculus, read-out: % of analgesic activity, 100 mg/kg, male Swiss mouse, PBQ): 79% | change in vivo at 100 mg/kg [4]: -41%

C(=Nc1cc2c(cc1CCN1CCCCC1)OCO2)c1cccnc1 [COR 01 202]
mortality at 336 h ([1]; 750 mg/kg): 30% | % of mortality ([2]; 500 mg/kg): 10% | % of mortality ([2]; 1000 mg/kg): 60% | % of analgesic activity [3, 9]: 0% | % of analgesic activity ([3]; 200 mg/kg, male Swiss mouse, PBQ): 33% | inhibition in vivo at 50 mg/kg ([3]; Mus musculus, 50 mg/kg, male Swiss mouse, PBQ, read-out: % of analgesic activity): 2% | % of activity vis-a-vis the stereotype induced by apomorphine ([5]; 25 mg/kg): -35% | % of activity vis-a-vis the stereotype induced by apomorphine ([5]; 50 mg/kg): -32% | % of activity vis-a-vis the stereotype induced by apomorphine ([5]; 75 mg/kg): -29% | % of activity vis-a-vis the stereotype induced by apomorphine ([5]; 200 mg/kg): -20% | antagonism vis-a-vis the stereotype with apomorphine [5]: manifest an antagonism | % of increase in the number of displacements of the animal ([6]; 25 mg/kg): +48% | % of increase in the number of displacements of the animal ([6]; 50 mg/kg): +96% | change in vivo at 25 mg/kg ([7]; 25 mg/kg): 0% | change in vivo at 50 mg/kg ([7]; 50 mg/kg): -67% | change in vivo at 75 mg/kg ([7]; 75 mg/kg): -44% | Test of despair: % of antagonism ([8]; 50 mg/kg): -49% | Test of despair: % of antagonism ([8]; 100 mg/kg): -67%

C(=Nc1cc2c(cc1CCN1CCCCC1)OCO2)c1cccnc1 [COR 01 174]
mortality at 336 h ([1]; 2000 mg/kg): 50% | % of mortality ([2]; 500 mg/kg): 0% | % of mortality ([2]; 1000 mg/kg): 10% | % of analgesic activity [3, 9]: 48% | inhibition in vivo at 200 mg/kg ([3]; Mus musculus, 200 mg/kg, male Swiss mouse, PBQ, read-out: % of analgesic activity): 18%

Cc1ccc(C=Nc2cc3c(cc2CCN(C)C)OCO3)cc1 [COR 01 206]
mortality at 336 h ([1]; 1500 mg/kg): 0% | mortality at 336 h ([1]; 2000 mg/kg): 50% | change in vivo at 25 mg/kg [4]: -18% | change in vivo at 50 mg/kg [4]: -28% | change in vivo at 100 mg/kg [4]: -63% | % of activity vis-a-vis the stereotype induced by apomorphine ([5]; 50 mg/kg): -53% | % of activity vis-a-vis the stereotype induced by apomorphine ([5]; 100 mg/kg): -71% | % of activity vis-a-vis the stereotype induced by apomorphine ([5]; 200 mg/kg): -22% | antagonism vis-a-vis the stereotype with apomorphine [5]: manifest an antagonism
